In paper PMC4805779, “The Ascaris suum nicotinic receptor, ACR-16, as a drug target: Four novel negative allosteric modulators from virtual screening” (International Journal for Parasitology: Drugs and Drug …, 2016):
Where a name gives a salt, the structure may show the parent alone. Read-outs that look alike come from different tables or passages of the source.

Columns and labels:
Asu-ACR-16 [1] = biological target: T1, Asu-ACR-16 (Ascaris suum, UniProt F1KYJ9); test: cell-based; format: cell-based; settings: for Hill slope (nH): inhibitory concentration-response vs 100 μM ach; for Inhibitionmax (maximum inhibition): of currents elicited by 100 μM ach
T1 construct: Full-length Asu-acr-16 cDNA was amplified with the forward primer; expressed in transfected cells; host or cells: Xenopus laevis oocytes injected with Asu-acr-16 cRNA plus Asu-ric-3 cRNA
T1 sequence (F1KYJ9 1-504): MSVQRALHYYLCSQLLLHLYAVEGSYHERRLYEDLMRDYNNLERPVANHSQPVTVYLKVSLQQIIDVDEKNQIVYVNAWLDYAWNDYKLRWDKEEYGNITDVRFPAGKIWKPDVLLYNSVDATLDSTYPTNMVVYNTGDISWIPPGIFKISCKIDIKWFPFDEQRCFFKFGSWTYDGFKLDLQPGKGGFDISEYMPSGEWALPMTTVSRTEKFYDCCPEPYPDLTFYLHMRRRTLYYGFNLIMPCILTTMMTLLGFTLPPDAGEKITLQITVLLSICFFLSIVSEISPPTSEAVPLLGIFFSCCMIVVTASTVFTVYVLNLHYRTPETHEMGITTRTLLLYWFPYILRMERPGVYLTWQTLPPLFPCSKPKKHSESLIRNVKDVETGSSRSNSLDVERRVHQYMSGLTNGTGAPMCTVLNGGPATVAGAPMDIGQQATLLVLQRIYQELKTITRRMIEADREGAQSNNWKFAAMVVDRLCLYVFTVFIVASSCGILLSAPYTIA
Procedure: The nanoject II microinjector (Drummond Scientific, PA, USA) was used to injected the cRNA mixture into the animal pole of the de-folliculated X. laevis oocyte (Ecocyte Bioscience, Austin, TX, USA).
(§1) We used two-electrode voltage-clamp electrophysiology to record the inward current generated by the activated Asu-ACR-16 receptors expressed in X. laevis oocytes. 100 μM BAPTA-AM (final concentration) was added into the oocyte incubation solution 4 h prior to recording, to prevent the current produced by the endogenous calcium-activated chloride channels during recording. An Axoclamp 2B amplifier (Molecular Devices, CA, USA) was used for recording and oocytes were held at −60 mV. A PC computer with software Clampex 9.2 (Molecular Devices, CA, USA) was used to acquire the recording data. The microelectrodes used to measure current in oocytes were pulled on a Flaming/Brown horizontal electrode puller (Model P-97, Sutter Instruments), filled with 3M KCl and had resistances of 20–30 MΩ. The microelectrode tips were broken back carefully with Kimwipes (Wilmington, NC, USA) to reduce the resistance to 2–5 MΩ. […] Oocytes were placed into a tiny groove of the narrow oocyte recording chamber.
(§2) 100 μM acetylcholine was applied initially for 10 s as a control to check the viability of the oocytes and Asu-ACR-16 expression for all the recordings. Recording solution was then used to wash out the drug from the oocytes for 2–3 min before next application of drug perfusion.
(§3) The data from electrophysiological recordings were analyzed using Clampfit 9.2 (Molecular Devices, CA, and USA) and GraphPad Prism 5.0 (Graphpad Software Inc., CA, USA). […] Concentration-response relationships or concentration-inhibition (%) relationships were analyzed by fitting data points into the Hill equation, with at least four replicates of each experiment set.

Asu-ACR-16 [2] = biological target: T1, Asu-ACR-16; test: cell-based; format: cell-based
Procedure: as §1, §2, §3

C. elegans strain N2 = test: C. elegans L4 larvae motility (thrashing) in M9 buffer; format: in vivo, Caenorhabditis elegans; settings: for Effect on locomotion of worms vs negative control: 100 μM, 0-20 min
Procedure: The wild-type C. elegans strain N2 were obtained from the Caenorhabditis Genetics Center (University of Minnesota, MN, USA). […] We counted the number of worms with normal motility in M9 buffer with diluted drugs from the stock solutions (≤1% DMSO) at 0, 5, 10, 15 and 20 min. Five replicates were applied for each treatment. Motility between negative control (1% DMSO, final concentration) and drug treated worms were compared at each time point using student t-test.

[3] = inhibition of currents elicited by 100 μM ach, oocytes held at −60 mV, mean ± S.E.M., read-out: IC50

Question: With `CC(C)(C)[C@]1(O)CCN2C[C@H]3c4ccccc4CCc4cccc(c43)[C@@H]2C1` [(+)-butaclamol Cl, (+)-butaclamol hydrochloride] as the compound, how does the IC50 (Asu-ACR-16 [1]) read?
Answer: 9.85 ± 2.37 µM

Question: What about the “Hill slope (nH)” value (Asu-ACR-16 [1]; mean ± S.E.M.) of the same compound?
Answer: 1.34 ± 0.29

Question: What about the “Inhibitionmax (maximum inhibition)” value (Asu-ACR-16 [1]; mean ± S.E.M.) of the same compound?
Answer: 79.53 ± 12.41%

Question: What about the “Hill slope (nH) of ach curve” value (Asu-ACR-16 [2]; in presence of 1 μM hit) of the same compound?
Answer: 9.64 ± 4.14

Question: And the “Hill slope (nH) of ach curve” value (Asu-ACR-16 [2]; in presence of 3 μM hit)?
Answer: 12.75 ± 3.63

Question: How did the “Time to recovery of normal motility” value (C. elegans strain N2; L4 larvae, 30 μM) turn out when `Cl.N#Cc1ccc2c(c1)CCN(CC[C@H]1CC[C@H](NC(=O)c3ccnc4ccccc34)CC1)C2.O` [SB-277011-A, SB-277011-A hydrochloride hydrate] was run?
Answer: ≤ 20 min

Question: And the “Drop in number of normal worms with thrashing-like movement” value (C. elegans strain N2; L4 larvae, 30 μM, 5 min, p < 0.01)?
Answer: 60%

Question: What about the “Number of worms with motility that appeared normal” value (“Number of worms” below) (C. elegans strain N2; L4 larvae, 30 μM, 10 min, p < 0.05) of the same compound?
Answer: 50%

Question: What about the “Number of worms” value (C. elegans strain N2; L4 larvae, 30 μM, 15 min, p > 0.05) of the same compound?
Answer: 85%

Question: What about the “Number of worms” value (C. elegans strain N2; L4 larvae, 30 μM, after 20 min) of the same compound?
Answer: returned to near negative control values

Question: And the “Effect on motility of adult C. elegans compared with larvae” value (C. elegans strain N2; adult worms)?
Answer: less effective on adult C. elegans

Question: For `CC(=O)OCC[N+](C)(C)C` [ach, acetylcholine chloride], which “Hill slope (nH)” value (Asu-ACR-16 [2]; ach alone (control, absence of hits)) is on record?
Answer: 3.05 ± 0.07

Question: What about the Emax (Asu-ACR-16 [2]; read-out: Imax (maximum response)) of the same compound?
Answer: 97.5 ± 1.19%

Question: `O=C(OCC1c2ccccc2-c2ccccc21)N1CCC(C(=O)O)(c2cccc3ccccc23)CC1` [fmoc-1, fmoc-4-(naphthalen-1-yl)-piperidine-4-carboxylic acid] was tested. Which IC50 (Asu-ACR-16 [1]; [3]) did it give?
Answer: 10 ± 1.38 µM

Question: And the “Hill slope (nH)” value (Asu-ACR-16 [1]; mean ± S.E.M.)?
Answer: 1.97 ± 0.37

Question: And the “Inhibitionmax (maximum inhibition)” value (Asu-ACR-16 [1]; mean ± S.E.M.)?
Answer: 82.49 ± 4.74%

Question: And the “Hill slope (nH) of ach curve” value (Asu-ACR-16 [2]; in presence of 3 μM hit)?
Answer: 1.76 ± 0.21

Question: And the “Effect on locomotion of worms vs negative control” value (C. elegans strain N2; L4 larvae)?
Answer: No visual effects

Question: For `O=C(OCC1c2ccccc2-c2ccccc21)N1CCC(C(=O)O)(c2ccc3ccccc3c2)CC1` [fmoc-2, fmoc-4-(naphthalen-2-yl)-piperidine-4-carboxylic acid], which IC50 (Asu-ACR-16 [1]; [3]) is on record?
Answer: 16.7 ± 1.95 µM

Question: And the “Hill slope (nH)” value (Asu-ACR-16 [1]; mean ± S.E.M.)?
Answer: 1.22 ± 0.17

Question: And the “Inhibitionmax (maximum inhibition)” value (Asu-ACR-16 [1]; mean ± S.E.M.)?
Answer: 80.34 ± 10.32%

Question: And the “Hill slope (nH) of ach curve” value (Asu-ACR-16 [2]; in presence of 3 μM hit)?
Answer: 2.54 ± 0.18

Question: What about the “Effect on locomotion of worms vs negative control” value (C. elegans strain N2; L4 larvae) of the same compound?
Answer: No visual effects

Question: `c1ccc([C@H]2CN3CCSC3=N2)cc1` [levamisole, Levamisole hydrochloride] was tested. Which “Time without recovery of normal motility” value (C. elegans strain N2; L4 larvae, 30 μM) did it give?
Answer: > 24 h
